Assay results as given in patent publication US20160136120A1, “TRANSDERMAL DELIVERY KITS” (ASCLEMED USA, INC. dba EnovaChem Manufacturing, priority 2013, published 2016).

Assay: Stability tests of API mixed with Microderm base, stored in a jar with closed lid (LC-UV assay)
Format: physicochemical
Conditions: as illustrated in the stability studies
Method: The stability tests were carried out by mixing the API (USP strength) with Microderm™, and placing the resulting composition in ajar with a closed lid.
Column: 4.6-mm×25.0-cm; 5-μm packing L1
Storage condition: 20° C. to 25° C. (68° F. to 77° F.)

Susceptibility to degradation: particularly susceptible to degradation
SMILES: NCC(CC(=O)O)c1ccc(Cl)cc1 (stereo not drawn) [Baclofen, β-(4-chlorophenyl)-γ-aminobutyric acid]
